Tested on: EAS associated adrenal hyperplasia no. 1 primary culture
Experiment: Steroid profile by LC/MS-MS in EAS associated adrenal hyperplasia no. 1
Format: cell-based, human
Conditions: for 11-DOC absolute change vs ACTH stimulation with vehicle / 11-DOC percentage change vs ACTH stimulation with vehicle / 17-OHP absolute change vs ACTH stimulation with vehicle / 17-OHP percentage change vs ACTH stimulation with vehicle / Androstenedione absolute change vs ACTH stimulation with vehicle / Androstenedione percentage change vs ACTH stimulation with vehicle / Corticosterone absolute change vs ACTH stimulation with vehicle / Corticosterone percentage change vs ACTH stimulation with vehicle / Cortisol absolute change vs ACTH stimulation with vehicle / Cortisol percentage change vs ACTH stimulation with vehicle / DHEA absolute change vs ACTH stimulation with vehicle / DHEAS absolute change vs ACTH stimulation with vehicle / Prog absolute change vs ACTH stimulation with vehicle / Prog percentage change vs ACTH stimulation with vehicle / Testosterone absolute change vs ACTH stimulation with vehicle / Testosterone percentage change vs ACTH stimulation with vehicle: EAS associated adrenal hyperplasia no. 1, ACTH; for 11-DOC absolute change vs ACTH stimulation with vehicle / 11-DOC percentage change vs ACTH stimulation with vehicle / 17-OHP absolute change vs ACTH stimulation with vehicle / 17-OHP percentage change vs ACTH stimulation with vehicle / Androstenedione absolute change vs ACTH stimulation with vehicle / Androstenedione percentage change vs ACTH stimulation with vehicle / Corticosterone absolute change vs ACTH stimulation with vehicle / Corticosterone percentage change vs ACTH stimulation with vehicle / Cortisol absolute change vs ACTH stimulation with vehicle / Cortisol percentage change vs ACTH stimulation with vehicle / DHEA absolute change vs ACTH stimulation with vehicle / DHEAS absolute change vs ACTH stimulation with vehicle / Prog absolute change vs ACTH stimulation with vehicle / Prog percentage change vs ACTH stimulation with vehicle / Testosterone absolute change vs ACTH stimulation with vehicle / Testosterone percentage change vs ACTH stimulation with vehicle / 11-DOC absolute change vs control / 11-DOC percentage change vs control / 17-OHP absolute change vs control / 17-OHP percentage change vs control / Androstenedione absolute change vs control / Androstenedione percentage change vs control / Corticosterone absolute change vs control / Corticosterone percentage change vs control / Cortisol absolute change vs control / Cortisol percentage change vs control / DHEA absolute change vs control / DHEAS absolute change vs control / Prog absolute change vs control / Prog percentage change vs control / Testosterone absolute change vs control / Testosterone percentage change vs control: 3 days; for 11-DOC absolute change vs control / 11-DOC percentage change vs control / 17-OHP absolute change vs control / 17-OHP percentage change vs control / Androstenedione absolute change vs control / Androstenedione percentage change vs control / Corticosterone absolute change vs control / Corticosterone percentage change vs control / Cortisol absolute change vs control / Cortisol percentage change vs control / DHEA absolute change vs control / DHEAS absolute change vs control / Prog absolute change vs control / Prog percentage change vs control / Testosterone absolute change vs control / Testosterone percentage change vs control: EAS associated adrenal hyperplasia no. 1, Basal
Description: To obtain primary cultures, adrenal specimens (adrenocortical adenomas, adrenal hyperplasias and adrenocortical carcinomas) were collected after adrenalectomy at the department of Surgery, Erasmus University Medical Center, Rotterdam, the Netherlands, between April 2016 and May 2018. The study was conducted under guidelines that have been approved by the Medical Ethics Committee of the Erasmus Medical Center and informed consent was obtained from all patients. Immediately after surgery, specimens were minced into small pieces of 2-3 mm^3, washed in culture medium and centrifuged for 5 minutes at 600 g. The tissue was stored overnight in culture medium at 4° C., where after the tissue was centrifuged again and the supernatant was removed. Fragments were dissociated using 10-25 ml collagenase type 1 (2 mg/ml: Sigma-Aldrich), followed by incubation at 37° C. for up to two hours. Ficoll (GE healthcare) density gradient separation was used once or twice as required in order to separate contaminating red blood cells from the tumor cells. Cell viability and cell amount were counted by trypan blue exclusion. Dissociated cells were plated at a density of 10^5 cells per well. ACTH-secreting corticotroph pituitary adenoma tissue from patients with Cushing's disease (n=2) was available after transsphenoidal surgery. Single-cell suspensions of the pituitary adenoma tissues were prepared as previously described in detail.
Primary culture conditions for primary cultures were similar as described in the section ‘cell culture and compounds’, but with small adjustments: ACTH was used at a concentration of 85 pM (250 pg/mL), treatment was started 3-4 days after plating of the cells and cells were incubated for 3 days, and; for pituitary primary cultures, levoketoconazole and racemic ketoconazole were only tested at a concentration of 1 μM. Owing to a limited number of cells obtained from the specimens, not all experiments were carried out in every primary culture.
Cortisol concentrations were measured in the supernatant using a chemiluminescence immunoassay system (Immulite 2000XPi; Siemens DPC Inc., Los Angeles, Calif., USA). In addition, we carried out multi-steroid analysis by liquid chromatography/mass spectrometry (LC/MS-MS) to accurately quantify androstenedione, corticosterone, cortisol, 11-deoxycortisol, DHEA, DHEAS, progesterone, 17-hydroxyprogesterone, and testosterone. Concentrations that were tested on the LC/MS-MS were closest to 50% inhibition or maximal inhibition of cortisol as determined by the immunoassay. Steroids were quantified with respect to a calibration series, with internal standards. Steroids were quantified on a Xevo TQS LC-MS/MS (Waters Chromatography).
Statistical analysis was performed using Graphpad Prism 6.0 (Graphpad Software, San Diego, CA). Non-linear regression curve fitting program was used to calculate the half maximal inhibitory concentrations (IC50) on cortisol production. Effects of both compounds on the steroid profile were measured as absolute change compared to control and compared using the Student's t-test. When assessing differences between effects of both compounds, the percentage change was evaluated and compared in order to correct for differences in the vehicle treated control cells. Values of P<0.05 were considered statistically significant and data are presented as mean SEM.

`CC(=O)N1CCN(c2ccc(OC[C@@H]3CO[C@@](Cn4ccnc4)(c4ccc(Cl)cc4Cl)O3)cc2)CC1` (relative stereo) [levoketoconazole, 2S,4R cis-1-acetyl-4-[4-[[2-(2,4-dichlorophenyl)-2-(1H-imidazol-1-ylmethyl)-1,3-dioxolan-4-yl]methoxyl]phenyl]piperazine] was tested, and the “11-DOC absolute change vs ACTH stimulation with vehicle” value (“11-DOC absolute change … with vehicle” for short) (0.05 μM) was “did not change”, the “11-DOC percentage change vs ACTH stimulation with vehicle” value (0.05 μM) was “(+1.6%)” and the “17-OHP absolute change vs ACTH stimulation with vehicle” value (from here on “17-OHP absolute change … with vehicle”) (0.05 μM) was “+8.300 nmol/l”. The “17-OHP percentage change vs ACTH stimulation with vehicle” value (from here on “17-OHP percentage change … with vehicle”) (0.05 μM) was “+41%”, the “Androstenedione absolute change vs ACTH stimulation with vehicle” value (0.05 μM) was -9.600 nmol/L and the “Androstenedione percentage change vs ACTH stimulation with vehicle” value (0.05 μM) was −50%. The “Corticosterone absolute change vs ACTH stimulation with vehicle” value (0.05 μM) was “+97.95 nmol/l”, the “Corticosterone percentage change vs ACTH stimulation with vehicle” value (0.05 μM) was “+29%” and the “Cortisol absolute change vs ACTH stimulation with vehicle” value (“Cortisol absolute change … with vehicle” below) (0.05 μM) was -234.8 nmol/L. For the same compound, the “Cortisol percentage change vs ACTH stimulation with vehicle” value (shortened to “Cortisol percentage change … with vehicle”) (0.05 μM) was −37%, the “DHEA absolute change vs ACTH stimulation with vehicle” value (0.05 μM) was “<LLQ” and the “DHEAS absolute change vs ACTH stimulation with vehicle” value (0.05 μM) was “<LLQ”. For the same compound, the “Prog absolute change vs ACTH stimulation with vehicle” value (0.05 μM) was “+6.025 nmol/l”, the “Prog percentage change vs ACTH stimulation with vehicle” value (shortened to “Prog percentage change … with vehicle”) (0.05 μM) was “+167%” and the “Testosterone absolute change vs ACTH stimulation with vehicle” value (0.05 μM) was -0.3250 nmol/L. The “Testosterone percentage change vs ACTH stimulation with vehicle” value (0.05 μM) was −45%, the “11-DOC absolute change … with vehicle” value (0.05 μM, listed as LK) was -6.000 nmol/L and the “17-OHP absolute change … with vehicle” value (0.05 μM, listed as LK) was “+8.300 nmol/l”. For the same compound, the “17-OHP percentage change … with vehicle” value (0.05 μM, listed as LK) was “(+41%)”, the “Androstenedione absolute change vs ACTH stimulation with vehicle” value (0.05 μM, listed as LK) was -9.600 nmol/L and the “Androstenedione percentage change vs ACTH stimulation with vehicle” value (0.05 μM, listed as LK) was “(−50%)”. For the same compound, the “Corticosterone absolute change vs ACTH stimulation with vehicle” value (0.05 μM, listed as LK) was 97.95 nmol/L, the “Corticosterone percentage change vs ACTH stimulation with vehicle” value (0.05 μM, listed as LK) was “(+29%)” and the “Cortisol absolute change … with vehicle” value (0.05 μM, listed as LK) was -234.8 nmol/L. For the same compound, the “Cortisol percentage change … with vehicle” value (0.05 μM, listed as LK) was “(−37%)”, the “Prog percentage change … with vehicle” value (0.05 μM, listed as LK) was “(+167%)” and the “Testosterone absolute change vs ACTH stimulation with vehicle” value (0.05 μM, listed as LK) was -0.3250 nmol/L. The “Testosterone percentage change vs ACTH stimulation with vehicle” value (0.05 μM, listed as LK) was “(−45%)”, the “11-DOC absolute change … with vehicle” value (5 μM) was -435.4 nmol/L and the “11-DOC percentage change vs ACTH stimulation with vehicle” value (5 μM) was “(−99%)”. For the same compound, the “17-OHP absolute change … with vehicle” value (5 μM) was -31.55 nmol/L, the “17-OHP percentage change … with vehicle” value (5 μM) was “(−90%)” and the “Androstenedione absolute change vs ACTH stimulation with vehicle” value (5 μM) was -15.19 nmol/L. The “Androstenedione percentage change vs ACTH stimulation with vehicle” value (5 μM) was “(−98%)”, the “Corticosterone absolute change vs ACTH stimulation with vehicle” value (5 μM) was -373.7 nmol/L and the “Corticosterone percentage change vs ACTH stimulation with vehicle” value (5 μM) was “(−100%)”. The “Cortisol absolute change … with vehicle” value (5 μM) was -640.2 nmol/L, the “Cortisol percentage change … with vehicle” value (5 μM) was “(−100%)” and the “DHEA absolute change vs ACTH stimulation with vehicle” value (5 μM) was “<LLQ”. The “DHEAS absolute change vs ACTH stimulation with vehicle” value (5 μM) was “<LLQ”, the “Prog absolute change vs ACTH stimulation with vehicle” value (5 μM) was “+37.66 nmol/l” and the “Prog percentage change … with vehicle” value (5 μM) was “(+1201%)”. The “Testosterone absolute change vs ACTH stimulation with vehicle” value (5 μM) was -0.5513 nmol/L, the “Testosterone percentage change vs ACTH stimulation with vehicle” value (5 μM) was “(−85%)” and the “11-DOC absolute change vs control” value (0.05 μM) was -96.33 nmol/L. For the same compound, the “11-DOC percentage change vs control” value (0.05 μM) was “(−37%)”, the “17-OHP absolute change vs control” value (0.05 μM) was -0.4667 nmol/L and the “17-OHP percentage change vs control” value (0.05 μM) was “(−4.6%)”. For the same compound, the “Androstenedione absolute change vs control” value (0.05 μM) was -6.508 nmol/L, the “Androstenedione percentage change vs control” value (0.05 μM) was “(−64%)” and the “Corticosterone absolute change vs control” value (0.05 μM) was -67.07 nmol/L. For the same compound, the “Corticosterone percentage change vs control” value (0.05 μM) was “(−33%)”, the “Cortisol absolute change vs control” value (0.05 μM) was -178.4 nmol/L and the “Cortisol percentage change vs control” value (0.05 μM) was “(−64%)”. For the same compound, the “DHEA absolute change vs control” value (0.05 μM) was “<LLQ”, the “DHEAS absolute change vs control” value (0.05 μM) was “<LLQ” and the “Prog absolute change vs control” value (0.05 μM) was “+5.108 nmol/l”. The “Prog percentage change vs control” value (0.05 μM) was “(+123%)”, the “Testosterone absolute change vs control” value (0.05 μM) was -0.2583 nmol/L and the “Testosterone percentage change vs control” value (0.05 μM) was “(−48%)”. The “11-DOC absolute change vs control” value (5 μM) was -280.5 nmol/L, the “11-DOC percentage change vs control” value (5 μM) was “(−99%)” and the “17-OHP absolute change vs control” value (5 μM) was -14.33 nmol/L. For the same compound, the “17-OHP percentage change vs control” value (5 μM) was “(−93%)”, the “Androstenedione absolute change vs control” value (5 μM) was -7.978 nmol/L and the “Androstenedione percentage change vs control” value (5 μM) was “(−95%)”. The “Corticosterone absolute change vs control” value (5 μM) was -193.8 nmol/L, the “Corticosterone percentage change vs control” value (5 μM) was “(−99%)” and the “Cortisol absolute change vs control” value (5 μM) was -230.3 nmol/L. The “Cortisol percentage change vs control” value (5 μM) was “(−99%)”, the “DHEA absolute change vs control” value (5 μM) was “<LLQ” and the “DHEAS absolute change vs control” value (5 μM) was “<LLQ”. The “Prog absolute change vs control” value (5 μM) was “+13.36 nmol/l”, the “Prog percentage change vs control” value (5 μM) was “(+363%)” and the “Testosterone absolute change vs control” value (5 μM) was -0.3838 nmol/L. The “Testosterone percentage change vs control” value (5 μM) was “(−90%)”, the “total change of steroids” value (EAS associated adrenal hyperplasia no. 1, basal condition) was -343.9 nmol/L and the “total sum of change of the steroids: decrease” value (EAS associated adrenal hyperplasia no. 1, under ACTH stimulation) was 138.5 nmol/L. The “propensity to increase 11-deoxycorticosterone secretion compared to racemic ketoconazole” value (human adrenal cells in the presence of ACTH drive) was “less propensity to increase 11-deoxycorticosterone secretion”.
